The results in this text go back to ChEMBL document CHEMBL1201862, “PubChem BioAssay data set” (2004).

Molecules are shown by their SMILES.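 These data come from cells grown in 96-well plates and exposed to compound for 48 hours at five concentrations. GI50: concentration for 50% inhibition of growth.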 The source made the active and inactive calls. Rule as the data show it: active = GI50 up to about 1.1 µM and inactive = higher. Where a SMILES comes first, the peptide text is derived from it. [ ]: non-standard residue; d: D form. The star is where a group is joined. ξ: configuration not given here. ξD = NC(CC(=O)O)C(=O)O; Ac3c = NC1(C(=O)O)CC1; Boc = CC(C)(C)OC(=O)*; OBn = c1ccc(CO*)cc1

Some test systems named below: UO-31; UACC-62; ACHN; MCF7; U-251; SNB-75; HOP-92; MDA-N; T47D; PC-3; TK-10; HCT-116; SW-620; SK-MEL-28; HCT-15; UACC-257; SN12C; SK-MEL-2; HL-60.
Holding throughout (assay): NCI tumour cell line growth inhibition, 48 h

For `CCOC(=O)c1c(N2CCCC2)[nH]c(=O)c(C(c2ccc(Cl)c([N+](=O)[O-])c2)c2c(O)c(C(=O)OCC)c(N3CCCC3)[nH]c2=O)c1O`, the GI50 with UO-31 was 24.7 µM (inactive); with UACC-62, 26.8 µM (inactive); in the test with ACHN, 34.3 µM (inactive); in the test with MCF7, 28.6 µM (inactive); in the test on U-251 it was 14.9 µM (inactive); in the test on SNB-75, 9.86 µM (inactive). Also, the GI50 was 18.5 µM (inactive) in the test with HOP-92; 24.5 µM (inactive) in the test with MDA-N; 28.1 µM (inactive) in the test with T47D; 28.1 µM (inactive) in the test with PC-3; 19.2 µM (inactive) in the test with TK-10; 34 µM (inactive) with HCT-116. The GI50 was 33.3 µM (inactive) with SW-620; 35.3 µM (inactive) in the test with SK-MEL-28; greater than 100 µM in the test on HCT-15; 41.5 µM (inactive) in the test with UACC-257; 36.2 µM (inactive) in the test on SN12C.

For `Clc1ccc(OCc2nnc(CCCCCCCCc3nnc(COc4ccc(Cl)cc4Cl)n3Nc3ccccc3)n2Nc2ccccc2)c(Cl)c1`, the GI50 is 11.8 µM (inactive) in the test on UO-31; 1.47 µM (inactive) in the test with UACC-62; 2.44 µM (inactive) with ACHN; 7.06 µM (inactive) in the test with MCF7; 13.1 µM (inactive) in the test with U-251; 23 µM (inactive) with SNB-75. The GI50 in the test with HOP-92 was 17.4 µM (inactive); in the test on MDA-N, 9.93 µM (inactive); with T47D it was 6.53 µM (inactive); in the test on PC-3, 3.07 µM (inactive); in the test with TK-10, 16.8 µM (inactive); in the test on HCT-116, 11.4 µM (inactive). For the same molecule, the GI50 was 12.7 µM (inactive) with SW-620; 5.46 µM (inactive) in the test with SK-MEL-28; 8.04 µM (inactive) with SK-MEL-2; 10.9 µM with HCT-15; 10.8 µM (inactive) with UACC-257; 18.4 µM (inactive) with SN12C.

As for `CC(=O)N1CCn2c1nc1cc(Cl)ccc12`, the GI50 in the test on UACC-62 was 33.5 µM (inactive); with ACHN it was 34.4 µM (inactive); in the test on MCF7, > 100 µM (inactive); with HL-60 it was > 100 µM (inactive); in the test with U-251 it was 37.8 µM (inactive); in the test with HOP-92, 24.9 µM (inactive). Also, the GI50 is > 100 µM (inactive) with MDA-N; 21.4 µM (inactive) in the test on T47D; 47.5 µM (inactive) with PC-3; 63.1 µM (inactive) with TK-10; 44 µM (inactive) with HCT-116; > 100 µM (inactive) in the test with SW-620. Also, the GI50 with SK-MEL-28 is > 100 µM (inactive); in the test on SK-MEL-2 it was 26.1 µM (inactive); with HCT-15 it was 35.2 µM; in the test on UACC-257, > 100 µM (inactive); with SN12C, > 100 µM (inactive).

As for `CSc1nc(=S)[nH]c2c1c(C)nn2-c1ccccc1`, the GI50 in the test on UO-31 was 22 µM (inactive); in the test on UACC-62 it was 14.5 µM (inactive); in the test on ACHN, 21.9 µM (inactive); in the test on MCF7 it was 17.8 µM (inactive); in the test with HL-60, 28.1 µM (inactive); with U-251, 29.4 µM (inactive). Also, the GI50 is 7.1 µM (inactive) in the test with HOP-92; 24.8 µM (inactive) in the test on MDA-N; 19.1 µM (inactive) in the test on T47D; 25.7 µM (inactive) in the test with PC-3; 24.4 µM (inactive) with TK-10; 17.8 µM (inactive) in the test on HCT-116. The GI50 in the test with SW-620 is 34.5 µM (inactive); with SK-MEL-28 it was 38.8 µM (inactive); in the test on SK-MEL-2, 22.8 µM (inactive); in the test on HCT-15, 20.3 µM; with UACC-257, 20.5 µM (inactive); in the test with SN12C, 21.1 µM (inactive).

Take `COC(=O)c1onc(C2OC(C)(C)OC2C(O)COC(c2ccccc2)(c2ccccc2)c2ccccc2)c1C(=O)OC` (configuration not stated): the GI50 is > 100 µM (inactive) in the test on UO-31; 43.6 µM (inactive) in the test on UACC-62; > 100 µM (inactive) in the test with ACHN; > 100 µM (inactive) in the test with MCF7; > 100 µM (inactive) with HL-60; > 100 µM (inactive) with U-251. Also, the GI50 in the test on HOP-92 was > 100 µM (inactive); in the test on MDA-N, > 100 µM (inactive); in the test with T47D, > 100 µM (inactive); with PC-3 it was 44.7 µM (inactive); with TK-10, > 100 µM (inactive); in the test on HCT-116, > 100 µM (inactive). Besides, the GI50 in the test with SW-620 was > 100 µM (inactive); with SK-MEL-28 it was > 100 µM (inactive); in the test on SK-MEL-2 it was > 100 µM (inactive); in the test with HCT-15, greater than 100 µM; in the test with SN12C, > 100 µM (inactive).

As to `C=C(C)[C@@H]1CC[C@@]2(C)[C@H]1[C@H]1CCC3[C@@]4(C)CC[C@H](O)C(C)(C)[C@@H]4CC[C@@]3(C)[C@]1(C)C[C@@H]2O` (some centres not stated) [CALENDULADIOL], the GI50 in the test with ACHN was 21.9 µM (inactive); in the test on MCF7, 22.8 µM (inactive); in the test on HL-60 it was 19.5 µM (inactive); with U-251, 25.3 µM (inactive); in the test on SNB-75, 27.3 µM (inactive); in the test on HOP-92, 92.3 µM (inactive). For the same molecule, the GI50 with MDA-N is 43 µM (inactive); in the test with T47D, > 100 µM (inactive); in the test with PC-3, 39.4 µM (inactive); with TK-10, > 100 µM (inactive); in the test on HCT-116, 43.5 µM (inactive); with SW-620 it was 41.9 µM (inactive). The GI50 in the test on SK-MEL-28 is > 100 µM (inactive); in the test on HCT-15, 18.5 µM; in the test on UACC-257, 55.2 µM (inactive); with SN12C, 87.9 µM (inactive).

With `CC(C)C(Sc1nc(N)nc2nc[nH]c12)C(=O)O` (configuration not stated), the GI50 with UO-31, with UACC-62, in the test on ACHN, in the test on MCF7, in the test with HL-60 and in the test with U-251 was > 100 µM (inactive) each time. In addition, the GI50 in the test on SNB-75, in the test with MDA-N, in the test with T47D, with PC-3, in the test with TK-10 and in the test with HCT-116 was > 100 µM (inactive) each time. Besides, the GI50 was > 100 µM (inactive) in the test with SW-620; > 100 µM (inactive) in the test with SK-MEL-28; > 100 µM (inactive) in the test on SK-MEL-2; greater than 100 µM in the test with HCT-15; > 100 µM (inactive) in the test with UACC-257; > 100 µM (inactive) with SN12C.

As for `Cc1nc2c(=O)n(C)c(=O)nc-2n(CCO)c1C`, the GI50 in the test with UO-31, with UACC-62, in the test on ACHN, in the test on MCF7, in the test with U-251 and in the test with SNB-75 was > 100 µM (inactive) each time. For the same molecule, the GI50 in the test with HOP-92, with MDA-N, in the test on T47D, in the test with PC-3, in the test with TK-10 and with HCT-116 was > 100 µM (inactive) throughout. The GI50 with SW-620 was > 100 µM (inactive); in the test with SK-MEL-28, > 100 µM (inactive); with SK-MEL-2 it was > 100 µM (inactive); in the test with HCT-15, greater than 100 µM; in the test with UACC-257 it was > 100 µM (inactive); with SN12C, > 100 µM (inactive).

Regarding `O=C(CN1C(=O)c2ccccc2C1=O)NC1(C(=O)O)CCCC1`, the GI50 with UO-31, in the test on UACC-62, with ACHN, with MCF7, in the test with HL-60 and in the test with U-251 was > 100 µM (inactive) in each case. The GI50 in the test on SNB-75, with MDA-N, in the test on T47D, with PC-3, in the test on TK-10 and with HCT-116 was > 100 µM (inactive) throughout. Also, the GI50 with SW-620 is > 100 µM (inactive); in the test on SK-MEL-28 it was > 100 µM (inactive); with SK-MEL-2 it was > 100 µM (inactive); with HCT-15, greater than 100 µM; with UACC-257, > 100 µM (inactive); with SN12C it was > 100 µM (inactive).

In the case of `COC(=O)C1(NC(=O)C(CC(=O)OCc2ccccc2)NC(=O)OC(C)(C)C)CC1` (configuration not stated) (Boc-[ξD](OBn)-[Ac3c]-OMe), the GI50 with UO-31 is > 100 µM (inactive); in the test on UACC-62, 1.58 µM (inactive); in the test with ACHN, > 100 µM (inactive); in the test with MCF7, > 100 µM (inactive); in the test with U-251, > 100 µM (inactive); with SNB-75 it was > 100 µM (inactive). Besides, the GI50 in the test on HOP-92, with MDA-N, in the test with T47D, in the test on PC-3, with TK-10 and in the test with HCT-116 was > 100 µM (inactive) in each case. For the same molecule, the GI50 in the test on SW-620 is > 100 µM (inactive); in the test with SK-MEL-28, > 100 µM (inactive); in the test with SK-MEL-2, > 100 µM (inactive); in the test on HCT-15, greater than 100 µM; with UACC-257 it was > 100 µM (inactive); with SN12C it was > 100 µM (inactive).

`CC1(C)Cc2c(sc3[nH]c(=S)[nH]c(=S)c23)CS1`: the GI50 with UO-31 was 31.8 µM (inactive); with UACC-62, 18.5 µM (inactive); in the test on MCF7 it was 32.8 µM (inactive); in the test with HL-60, 33.2 µM (inactive); with U-251 it was 41.9 µM (inactive); in the test with HOP-92, 12.4 µM (inactive). Moreover, the GI50 in the test with MDA-N was 33.9 µM (inactive); in the test on T47D, 20.3 µM (inactive); in the test with PC-3, 25.4 µM (inactive); with TK-10, 95.5 µM (inactive); in the test with HCT-116, 47 µM (inactive); in the test with SW-620, 53.1 µM (inactive). For the same molecule, the GI50 was 22.4 µM (inactive) with SK-MEL-28; 38.4 µM (inactive) in the test with SK-MEL-2; 33.3 µM with HCT-15; 18.2 µM (inactive) in the test on UACC-257; 40.5 µM (inactive) in the test on SN12C.
